Square brackets hold non-standard residues; d marks the D form. Ends that are not written are not given here. Peptide text beside a SMILES is read from it. Lys(Me3) = C[N+](C)(C)CCCC[C@H](N)C(=O)O
How the values were obtained:
[1] = target: MORC3 ATPase domain ATPase (Homo sapiens) (UniProt Q14149); details: cited from earlier work
[2] = system: CW domain with W410 mutated to alanine; assay: binding to MORC3-CW W410A mutant
MORC3-CW E431A mutant [3] = target: MORC3-CW E431A mutant (Homo sapiens, UniProt Q14149, E431A); details: NMR and fluorescence
MORC3-CW [4] = target: T1, MORC3-CW (Homo sapiens, UniProt Q14149); type: binding
T1 sequence (Q14149 401-455): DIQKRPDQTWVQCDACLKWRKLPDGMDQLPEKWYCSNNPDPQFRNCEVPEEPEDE

[5] = system: CW domain with W419 mutated to alanine; assay: binding to MORC3-CW W419A mutant
MORC3-CW [6] = target: T1, MORC3-CW; type: binding; details: pH 6.8
[7] = target: CW domain of human MORC3 (aa 401-455) (human) (UniProt Q14149); assay: other fluorescence titration
MORC3-CW E431A mutant [8] = target: T2, MORC3-CW E431A mutant (human, UniProt Q14149 401-455, E431A); assay: other fluorescence titration
T2 sequence (looked up): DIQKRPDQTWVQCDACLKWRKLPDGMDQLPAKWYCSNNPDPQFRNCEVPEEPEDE

MORC3 CW, sequence (Q14149 404-454): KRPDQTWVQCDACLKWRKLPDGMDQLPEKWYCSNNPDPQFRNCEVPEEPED
MORC3 ATPase domain ATPase (Homo sapiens), sequence (Q14149 1-400): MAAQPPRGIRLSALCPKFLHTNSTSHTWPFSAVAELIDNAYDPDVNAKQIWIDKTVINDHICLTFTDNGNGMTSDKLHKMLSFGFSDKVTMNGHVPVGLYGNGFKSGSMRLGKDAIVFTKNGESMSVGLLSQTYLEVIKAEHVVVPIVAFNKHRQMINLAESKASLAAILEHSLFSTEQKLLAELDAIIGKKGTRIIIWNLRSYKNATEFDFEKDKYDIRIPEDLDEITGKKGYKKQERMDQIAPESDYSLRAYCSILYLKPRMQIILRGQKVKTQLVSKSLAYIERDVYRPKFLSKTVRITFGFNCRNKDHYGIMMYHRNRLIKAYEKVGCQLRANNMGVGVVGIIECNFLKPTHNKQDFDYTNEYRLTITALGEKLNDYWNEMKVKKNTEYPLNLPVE

In the case of MORC3 CW (from UniProt Q14149), the Kd [1] is given as 9 µM.

In the case of `CSCC[C@H](N)C(=O)N[C@@H](C)C(=O)N[C@@H](CCCNC(=N)N)C(=O)N[C@H](C(=O)N[C@@H](C)C(=O)N[C@@H](CCCNC(=N)N)C(=O)N[C@@H](CO)C(=O)N[C@@H](CCCC[N+](C)(C)C)C(=O)N[C@H](C(=O)O)C(C)C)[C@@H](C)O` [NS1K229me3] (H-MARTARS[Lys(Me3)]V-OH; N-terminus and C-terminus assumed), the “binding to W410A mutant” value [2] is reported as “abrogated binding”, the “binding to E431A mutant” value (MORC3-CW E431A mutant [3]) is reported as “capable of binding” and the “fold increase in binding affinity vs unmodified NS1 peptide” value (MORC3-CW [4]) is reported as ~ 11 fold. The “binding to W419A mutant” value [5] was “abrogated binding” and the “chemical shift perturbations (CSPs) in MORC3-CW” value (MORC3-CW [6]) was “large chemical shift perturbations (CSPs)”.

With “unmodified NS1 peptide (residues 222-230 of NS1)” the Kd [7] was 157 µM.

With “NS1 peptide trimethylated at K229 (residues 222-230 of NS1)” the Kd [7] was 14 µM.

ARTK(Me3)QTARKSTG (peptide, UniProt P68431 2-13, looked up) [histone H3 peptide trimethylated at lysine 4 (residues 1-12)] gave a Kd (MORC3-CW E431A mutant [8]) of 0.6 µM.

Source: article PMC11514443 (Structure (London, England : 1993), 2019)
